Target: T1, Full length EhIP6KA (Entamoeba histolytica, UniProt C4M387)
T1 sequence (C4M387 1-270): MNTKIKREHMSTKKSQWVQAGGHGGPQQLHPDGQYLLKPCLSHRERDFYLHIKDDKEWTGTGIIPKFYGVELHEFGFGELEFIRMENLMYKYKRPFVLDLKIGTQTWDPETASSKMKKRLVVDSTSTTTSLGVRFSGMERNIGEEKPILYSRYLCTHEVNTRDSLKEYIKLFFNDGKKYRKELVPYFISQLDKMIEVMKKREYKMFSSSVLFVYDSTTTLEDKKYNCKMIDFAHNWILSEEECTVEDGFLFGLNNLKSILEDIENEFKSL
Experiment: NMR of reaction product
Assay type: biochemical
Conditions: 3 mM ATP, 2 mM MgCl2, pH 7.0, 37 then 25 C; product 5-InsP7

SMILES: O=P(O)(O)O[C@H]1[C@H](OP(=O)(O)O)[C@@H](OP(=O)(O)O)[C@H](OP(=O)(O)O)[C@@H](OP(=O)(O)O)[C@H]1OP(=O)(O)O [InsP6]
- NMR of reaction product: EhIP6KA, like mammalian IP6Ks, converts InsP6 to 5-InsP7
